We go through two molecules from ChEMBL document CHEMBL5126527, “Emerging targeted protein degradation tools for innovative drug discovery: From classical PROTACs to the novel and beyond” (Eur J Med Chem, 2022).

In general, IC50 refers to the point on the concentration scale where inhibition reaches its midpoint. The term EC50 denotes the concentration needed to bring the measured effect to its halfway point. The term Ki denotes the dissociation constant of the complex between target and ligand, obtained from inhibition or displacement.

One assay concerns MOLM-14. The assay can be described thus: Cytotoxicity against human MOLM-14 cells assessed as inhibition of cell growth incubated for 72 hrs by alamar blue assay. In kind it is functional, cell-based. The note with it: MOLM-14, 72 h. (Alamar Blue is a resazurin reagent that responds to reducing activity.)
Assay [1] concerns the target Protein cereblon/Tyrosine-protein kinase BTK (Homo sapiens, UniProt Q06187+Q96SW2). Kind of assay: Protac activity at CRBN/BTK in human MOLM-14 cells assessed as induction of BTK degradation incubated for 24 hrs by Western blot analysis. In kind it is cell-based. For orientation: A western blot detects proteins with antibodies after separation by electrophoresis.
The target in assay [2] is E3 ubiquitin-protein ligase Mdm2 (Homo sapiens, UniProt Q00987). The assay can be described thus: Binding affinity to human MDM2 assessed as inhibition constant by competitive binding based fluorescence polarization analysis. On the technique in general: Fluorescence polarisation rises when a labelled molecule tumbles more slowly, as on binding a larger partner.
Sequence of E3 ubiquitin-protein ligase Mdm2 (Q00987 whole entry): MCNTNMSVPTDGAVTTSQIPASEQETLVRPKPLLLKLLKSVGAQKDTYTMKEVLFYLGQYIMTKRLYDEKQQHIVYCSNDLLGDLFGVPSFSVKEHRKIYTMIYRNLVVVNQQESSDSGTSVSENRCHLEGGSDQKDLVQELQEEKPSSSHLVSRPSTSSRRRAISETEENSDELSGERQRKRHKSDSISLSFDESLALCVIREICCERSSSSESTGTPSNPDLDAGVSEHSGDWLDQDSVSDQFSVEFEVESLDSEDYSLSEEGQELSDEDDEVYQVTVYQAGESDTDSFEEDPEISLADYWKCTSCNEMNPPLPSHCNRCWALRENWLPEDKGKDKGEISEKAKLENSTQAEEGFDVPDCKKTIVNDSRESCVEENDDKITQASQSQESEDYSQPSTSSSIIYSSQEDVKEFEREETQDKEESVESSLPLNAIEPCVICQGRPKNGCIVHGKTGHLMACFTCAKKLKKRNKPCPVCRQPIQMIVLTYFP
The next assay deals with A549. Kind of assay: Antiproliferative activity against human A549 cells assessed as cell growth inhibition measured after 72 hrs by CCK-8 assay. In kind it is functional, cell-based. The note with it: A549, 72 h.

Sequence of Protein cereblon/Tyrosine-protein kinase BTK (Q06187 whole entry): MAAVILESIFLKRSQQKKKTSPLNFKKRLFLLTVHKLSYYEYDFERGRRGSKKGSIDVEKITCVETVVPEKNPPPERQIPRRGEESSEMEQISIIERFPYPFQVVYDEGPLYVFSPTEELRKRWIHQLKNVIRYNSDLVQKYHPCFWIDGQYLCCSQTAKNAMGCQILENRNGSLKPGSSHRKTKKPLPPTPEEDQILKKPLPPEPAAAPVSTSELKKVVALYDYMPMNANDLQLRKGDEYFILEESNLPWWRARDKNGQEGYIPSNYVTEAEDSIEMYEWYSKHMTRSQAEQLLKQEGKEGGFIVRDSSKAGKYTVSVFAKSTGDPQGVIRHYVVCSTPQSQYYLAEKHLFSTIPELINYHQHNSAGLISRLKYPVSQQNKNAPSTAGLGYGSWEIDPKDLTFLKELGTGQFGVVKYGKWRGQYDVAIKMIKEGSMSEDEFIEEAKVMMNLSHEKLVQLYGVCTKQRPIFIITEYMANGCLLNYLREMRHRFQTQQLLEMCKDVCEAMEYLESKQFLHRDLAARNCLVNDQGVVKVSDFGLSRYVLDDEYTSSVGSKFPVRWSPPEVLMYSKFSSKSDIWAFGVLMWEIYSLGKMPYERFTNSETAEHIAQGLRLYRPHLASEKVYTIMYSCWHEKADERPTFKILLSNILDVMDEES
Sequence of Protein cereblon/Tyrosine-protein kinase BTK (Q96SW2 whole entry): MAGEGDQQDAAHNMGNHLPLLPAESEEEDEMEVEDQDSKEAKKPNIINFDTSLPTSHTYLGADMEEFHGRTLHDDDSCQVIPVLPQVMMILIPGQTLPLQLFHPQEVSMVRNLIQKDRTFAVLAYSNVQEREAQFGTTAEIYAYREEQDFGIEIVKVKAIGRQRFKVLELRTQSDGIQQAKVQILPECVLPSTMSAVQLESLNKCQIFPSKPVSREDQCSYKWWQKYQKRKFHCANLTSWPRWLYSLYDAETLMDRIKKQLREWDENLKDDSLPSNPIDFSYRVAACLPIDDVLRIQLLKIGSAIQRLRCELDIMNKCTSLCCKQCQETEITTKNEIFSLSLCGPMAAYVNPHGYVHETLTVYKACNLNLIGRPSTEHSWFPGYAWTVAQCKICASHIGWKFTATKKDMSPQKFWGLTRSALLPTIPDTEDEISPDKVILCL

With `CN(CCCNC(=O)CNc1cccc2c1C(=O)N(C1CCC(=O)NC1=O)C2=O)C(C)(C)C=C(C#N)C(=O)N1CCC[C@@H](n2nc(-c3ccc(Oc4ccccc4)cc3)c3c(N)ncnc32)C1` (some centres undefined), in the assay on MOLM-14, the IC50 was determined as 300 nM. Moreover, the EC50 in assay [1] is 6.6 nM.
In the case of `CCOc1cc(C(C)(C)C)ccc1C1=NC(c2ccc(Cl)cc2)C(c2ccc(Cl)cc2)N1C(=O)N1CCN(CC(=O)NCCOCCOCCOCCNC(=O)CN2CCN(C(=O)N3C(c4ccc(C(C)(C)C)cc4OCC)=NC(c4ccc(Cl)cc4)C3c3ccc(Cl)cc3)CC2=O)C(=O)C1` (centres undefined), the inhibition constant Ki in assay [2] was 100 nM. For the same molecule, the IC50 in the assay on A549 is 1000 nM.
